For assay [1], the system named is Rattus norvegicus. Put plainly: Anti-thrombotic activity in intragastrically dosed Sprague-Dawley rat venous thrombosis model assessed as reduction in thrombus weight administered once daily for 3 days measured 2 hrs post last dose. The assay is classed as functional, organism-based.
The test system of assay [2] is Rattus norvegicus. Description: Anti-thrombotic activity in Sprague-Dawley rat venous thrombosis model assessed as reduction in thrombus weight at 5 mg/kg, ig administered once daily for 3 days measured 2 hrs post last dose. The assay is classed as functional, organism-based.
The target of the next assay is Prothrombin (Homo sapiens, UniProt P00734). Put plainly: Inhibition of human thrombin assessed as reduction in release of free nitroaniline using tosyl-glycyl-prolyl-arginine-4-nitranilide acetate as substrate preincubated for 10 mins followed by substrate addition by spectrophotometer.

Active and inactive are the calls of the source. The rule behind the calls is not given here.

`CC(C)(C)OC(=O)/N=C(\N)c1ccc(CC2NCCn3c2nc2cc(C4(C(=O)N5CCCC5)CCCC4)ccc23)cc1` (stereo not drawn): the Activity entry in the assay on Rattus norvegicus [1] was “Dose-dependent effect”. As to `CCCCCCOC(=O)NC(=N)c1ccc(NCc2nc3cc(C(=O)N(CCC(=O)OCC)c4ccccn4)ccc3n2C)cc1`, in the assay on Rattus norvegicus [2], the result was Active. What is called IC50 is the concentration that inhibits the measured activity by half. For `CC(C)(C(=O)N1CCCCC1)c1ccc2c(c1)nc1n2CCNC1Cc1ccc(C(=N)N)cc1` (stereo not drawn), the IC50 on Prothrombin worked out at 1000 nM. The same measure, in the same setting: to `N=C(N)c1ccc(CC2NCCn3c2nc2cc(C4(C(=O)N5CCCC5)CC4)ccc23)cc1` (stereo not drawn) belongs 511 nM; to `N=C(N)c1ccc(CC2NCCn3c2nc2cc(C4(C(=O)N5CCCC5)CCC4)ccc23)cc1` (stereo not drawn), 446 nM.

Consider `CCOC(=O)C1(c2ccc3c(c2)nc2n3CCNC2Cc2ccc(C(=N)N)cc2)CCCC1` (stereo not drawn), for which the IC50 at Prothrombin came out at 1920 nM. Still for that read-out and setting: to `N=C(N)c1ccc(CC2NCCn3c2nc2cc(C4(C(=O)N5CCCCC5)CCCC4)ccc23)cc1` (stereo not drawn) belongs 1030 nM.

With `CC(C)(C(=O)N1CCCC1)c1ccc2c(c1)nc1n2CCNC1Cc1ccc(C(=N)N)cc1` (stereo not drawn), the concentration for half-maximal inhibition (IC50) on Prothrombin came to 147 nM.

Consider `N=C(N)c1ccc(CC2NCCn3c2nc2cc(C4(C(=O)N5CCCCC5)CC4)ccc23)cc1` (stereo not drawn), for which the IC50 on Prothrombin was 437 nM. The same measure, in the same setting: to `N=C(N)c1ccc(CC2NCCn3c2nc2cc(C4(C(=O)N5CCCC5)CCCC4)ccc23)cc1` (stereo not drawn) belongs 82.8 nM; to `CCOC(=O)C(C)(C)c1ccc2c(c1)nc1n2CCNC1Cc1ccc(C(=N)N)cc1` (stereo not drawn), 1440 nM; to `N=C(N)c1ccc(CC2NCCn3c2nc2cc(C4(C(=O)N5CCCCC5)CCC4)ccc23)cc1` (stereo not drawn), 456 nM. With `Cc1nc(C)c(OC(=O)/N=C(\N)c2ccc(CC3NCCn4c3nc3cc(C5(C(=O)N6CCCC6)CCCC5)ccc34)cc2)nc1C` (stereo not drawn), the Activity entry in the assay on Rattus norvegicus [1] was “Dose-dependent effect”.

The record behind these values is ChEMBL document CHEMBL3871289, “Design, synthesis and antithrombotic evaluation of novel non-peptide thrombin inhibitors” (Bioorg Med Chem, 2017).
